From EP4745135A1 (Gluetacs Therapeutics (Shanghai) Co., Ltd., priority 2023, dated 2025)

Biological target: T1, human Cereblon WT GST-tagged protein (Homo sapiens, UniProt Q96SW2)
T1 construct: purchased CISBIO 64BDCRBNPEH
Experiment: CRBN-binding affinity, HTRF (CEREBLON BINDING kit)
Settings: for inhibition at 0.5 µM: read-out: Inhibition Rate at 0.5 µM (%); for inhibition at 2 µM: read-out: Inhibition Rate at 2 µM (%)
Method: The CEREBLON BINDING kits (specification: 10,000 tests; product number: Catalog # 64BDCRBNPEH; CISBIO company) was used to determine the CRBN binding ability of the compounds to be tested through a HTRF method (homogeneous time-resolved fluorescence). The specific methods are as follows: • 1. […] Specifically, diluent #9 (1X) solution was used as the diluent, and multiple concentration gradients were set. […] Then, 2.5 µL of human Cereblon WT GST-tagged protein solution was added to each well. Finally, 5 µL of the thoroughly mixed Thalidomide-Re reagent and GST Eu antibody working solution were added to each of the aforementioned wells. […] The blank control wells were sequentially added with 2.5 µL of diluent #9 (1X) solution, 2.5 µL of PROTAC binding buffer, and 5 µL of thoroughly mixed Thalidomide-Re reagent and GST Eu antibody working solution. • 4.

T1 sequence (Q96SW2 whole entry): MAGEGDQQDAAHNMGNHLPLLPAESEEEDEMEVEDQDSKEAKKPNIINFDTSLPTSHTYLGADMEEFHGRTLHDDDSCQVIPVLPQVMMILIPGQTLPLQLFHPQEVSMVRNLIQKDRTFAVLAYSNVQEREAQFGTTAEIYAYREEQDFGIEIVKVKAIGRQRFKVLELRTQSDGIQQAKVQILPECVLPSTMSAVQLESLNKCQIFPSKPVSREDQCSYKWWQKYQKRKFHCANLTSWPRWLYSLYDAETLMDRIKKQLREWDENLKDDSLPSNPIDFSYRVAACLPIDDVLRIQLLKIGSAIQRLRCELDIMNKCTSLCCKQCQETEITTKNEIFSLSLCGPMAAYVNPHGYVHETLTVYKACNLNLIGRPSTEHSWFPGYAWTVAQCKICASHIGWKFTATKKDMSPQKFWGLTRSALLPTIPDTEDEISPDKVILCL

Structure (SMILES): O=C1CCC(N2Cc3c(CN4CCN(c5ccnc(F)c5F)CC4)cccc3C2=S)C(=O)N1 (centres unmarked) [GT-08736, 3-(4-((4-(2,3-difluoropyridin-4-yl)piperazin-1-yl)methyl)-1-thioxoisoindolin-2-yl)piperidine-2,6-dione]
- inhibition at 0.5 µM: 60 to 80%
- inhibition at 2 µM: 80 to 100%

Structure (SMILES): Cc1cc2c(N3CCN(Cc4ccc5c(c4)CN(C4CCC(=O)NC4=O)C5=S)CC3)ncnc2s1 (centres unmarked) [GT-09282, 3-(5-((4-(6-methylthieno[2,3-d]pyrimidin-4-yl)piperazin-1-yl)methyl)-1-thioxoisoindolin-2-yl)piperidine-2,6-dione]
- inhibition at 0.5 µM: 60 to 80%
- inhibition at 2 µM: 80 to 100%

Structure (SMILES): O=C1CCC(N2Cc3c(CN4CCC(c5noc6ccccc56)CC4)cccc3C2=S)C(=O)N1 (centres unmarked) [GT-08816, 3-(4-((4-(benzo[d]isoxazol-3-yl)piperidin-1-yl)methyl)-1-thioxoisoindolin-2-yl)piperidine-2,6-dione]
- inhibition at 0.5 µM: 60 to 80%
- inhibition at 2 µM: 80 to 100%

Structure (SMILES): O=C1CCC(N2Cc3cc(CN4CCN(c5ncnc(Cl)c5Cl)CC4)ccc3C2=S)C(=O)N1 (centres unmarked) [GT-09254, 3-(5-((4-(5,6-dichloropyrimidin-4-yl)piperazin-1-yl)methyl)-1-thioxoisoindolin-2-yl)piperidine-2,6-dione]
- inhibition at 0.5 µM: 60 to 80%
- inhibition at 2 µM: 80 to 100%

Structure (SMILES): O=C1CCC(N2Cc3c(CN4CCC(Nc5ccccc5-c5ccc(Cl)cc5)CC4)cccc3C2=S)C(=O)N1 (centres unmarked) [GT-09034, 3-(4-((4-((4'-chloro-[1,1'-biphenyl]-2-yl)amino)piperidin-1-yl)methyl)-1-thioxoisoindolin-2-yl)piperidine-2,6-dione]
- inhibition at 0.5 µM: 40 to 53%
- inhibition at 2 µM: 60 to 80%

Structure (SMILES): O=C1CCC(N2Cc3c(CN4CC5CCC(C4)N5C(c4ccccc4)c4ccccc4)cccc3C2=S)C(=O)N1 (centres unmarked) [GT-08234, 3-(4-((8-benzhydryl-3,8-diazabicyclo[3.2.1]octan-3-yl)methyl)-1-thioxoisoindolin-2-yl)piperidine-2,6-dione]
- inhibition at 0.5 µM: 40 to 53%
- inhibition at 2 µM: 60 to 80%

Structure (SMILES): Cc1sc2ncnc(N3CCN(Cc4ccc5c(c4)CN(C4CCC(=O)NC4=O)C5=S)CC3)c2c1C (centres unmarked) [GT-09285, 3-(5-((4-(5,6-dimethylthieno[2,3-d]pyrimidin-4-yl)piperazin-1-yl)methyl)-1-thioxoisoindolin-2-yl)piperidine-2,6-dione]
- inhibition at 0.5 µM: 80 to 100%
- inhibition at 2 µM: 80 to 100%

Structure (SMILES): O=C1CCC(N2Cc3cc(CN4CCN(c5cccnn5)CC4)ccc3C2=S)C(=O)N1 (centres unmarked) [GT-09265, 3-(5-((4-(pyridazin-3-yl)piperazin-1-yl)methyl)-1-thioxoisoindolin-2-yl)piperidine-2,6-dione]
- inhibition at 0.5 µM: 60 to 80%
- inhibition at 2 µM: 80 to 100%

Structure (SMILES): O=C1CCC(N2Cc3cc(CN4CCN(C(=O)C5=C(c6ccc(F)cc6)CCCC5)CC4)ccc3C2=S)C(=O)N1 (centres unmarked) [GT-08165, 3-(5-((4-(4'-fluoro-3,4,5,6-tetrahydro-[1,1'-biphenyl]-2-carbonyl)piperazin-1-yl)methyl)-1-thioxoisoindolin-2-yl)piperidine-2,6-dione]
- inhibition at 0.5 µM: 60 to 80%
- inhibition at 2 µM: 80 to 100%

Structure (SMILES): O=C1CCC(N2Cc3c(CN4CCC(C5CCOc6cc(F)ccc65)CC4)cccc3C2=S)C(=O)N1 (centres unmarked) [GT-08854, 3-(4-((4-(7-fluorochroman-4-yl)piperidin-1-yl)methyl)-1-thioxoisoindolin-2-yl)piperidine-2,6-dione]
- inhibition at 0.5 µM: 40 to 53%
- inhibition at 2 µM: 80 to 100%

Structure (SMILES): O=C1CCC(N2Cc3cc(CN4CCC(c5ncnc6sc(-c7ccccc7)cc56)CC4)ccc3C2=S)C(=O)N1 (centres unmarked) [GT-09306, 3-(5-((4-(6-phenylthieno[2,3-d]pyrimidin-4-yl)piperidin-1-yl)methyl)-1-thioxoisoindolin-2-yl)piperidine-2,6-dione]
- inhibition at 0.5 µM: 40 to 53%
- inhibition at 2 µM: 80 to 100%

Structure (SMILES): O=C1CCC(N2Cc3cc(CN4CCN(c5cc(Cl)nnc5Cl)CC4)ccc3C2=S)C(=O)N1 (centres unmarked) [GT-09248, 3-(5-((4-(3,6-dichloropyridazin-4-yl)piperazin-1-yl)methyl)-1-thioxoisoindolin-2-yl)piperidine-2,6-dione]
- inhibition at 0.5 µM: 60 to 80%
- inhibition at 2 µM: 80 to 100%

Structure (SMILES): O=C1CCC(N2Cc3c(CN4CC=C(c5cccs5)CC4)cccc3C2=S)C(=O)N1 (centres unmarked) [GT-08299, 3-(4-((4-(thiophen-2-yl)-3,6-dihydropyridin-1 (2H)-yl)methyl)-1-thioxoisoindolin-2-yl)piperidine-2,6-dione]
- inhibition at 0.5 µM: 53 to 60%
- inhibition at 2 µM: 60 to 80%

Structure (SMILES): Cc1nc(C2=CCN(Cc3ccc4c(c3)CN(C3CCC(=O)NC3=O)C4=S)CC2)c2c3c(sc2n1)CCCC3 (centres unmarked) [GT-09323, 3-(5-((4-(2-methyl-5,6,7,8-tetrahydrobenzo[4,5]thieno[2,3-d]pyrimidin-4-yl)-3,6-dihydropyridin-1(2H)-yl)methyl)-1-thioxoisoindolin-2-yl)piperidine-2,6-dione]
- inhibition at 0.5 µM: 40 to 53%
- inhibition at 2 µM: 80 to 100%

Structure (SMILES): O=C1CCC(N2Cc3cc(CN4CCN(c5ncnc6scc(-c7ccccc7)c56)CC4)ccc3C2=S)C(=O)N1 (centres unmarked) [GT-09297, 3-(5-((4-(5-phenylthieno[2,3-d]pyrimidin-4-yl)piperazin-1-yl)methyl)-1-thioxoisoindolin-2-yl)piperidine-2,6-dione]
- inhibition at 0.5 µM: 60 to 80%
- inhibition at 2 µM: 80 to 100%

Structure (SMILES): O=C1CCC(N2Cc3c(CN4CCN(C(c5ccccn5)c5ccccn5)CC4)cccc3C2=S)C(=O)N1 (centres unmarked) [GT-08201, 3-(4-((4-(di(pyridin-2-yl)methyl)piperazin-1-yl)methyl)-1-thioxoisoindolin-2-yl)piperidine-2,6-dione]
- inhibition at 0.5 µM: 40 to 53%
- inhibition at 2 µM: 80 to 100%

Structure (SMILES): O=C1CCC(N2Cc3cc(CN4CCN(c5ccc(C(F)(F)F)cc5)CC4)ccc3C2=S)C(=O)N1 (centres unmarked) [GT-08239, 3-(1-thioxo-5-((4-(4-(trifluoromethyl)phenyl)piperazin-1-yl)methyl)isoindolin-2-yl)piperidine-2,6-dione]
- inhibition at 0.5 µM: 40 to 53%
- inhibition at 2 µM: 80 to 100%

Structure (SMILES): Cc1cc(N2CCN(Cc3cccc4c3CN(C3CCC(=O)NC3=O)C4=S)CC2)ccn1 (centres unmarked) [GT-08727, 3-(4-((4-(2-methylpyridin-4-yl)piperazin-1-yl)methyl)-1-thioxoisoindolin-2-yl)piperidine-2,6-dione]
- inhibition at 0.5 µM: 53 to 60%
- inhibition at 2 µM: 80 to 100%

Structure (SMILES): O=C1CCC(N2Cc3cc(CN4CCN(c5noc6cc(F)ccc56)CC4)ccc3C2=S)C(=O)N1 (centres unmarked) [GT-09257]
- inhibition at 0.5 µM: 60 to 80%
- inhibition at 2 µM: 80 to 100%

Structure (SMILES): O=C1CCC(N2Cc3c(CN4CCN(c5nc(N6CCNCC6)c6sccc6n5)CC4)cccc3C2=S)C(=O)N1 (centres unmarked) [GT-09036, 3-(4-((4-(4-(piperazin-1-yl)thieno[3,2-d]pyrimidin-2-yl)piperazin-1-yl)methyl)-1-thioxoisoindolin-2-yl)piperidine-2,6-dione]
- inhibition at 0.5 µM: 60 to 80%
- inhibition at 2 µM: 80 to 100%

Structure (SMILES): O=C1CCC(N2Cc3cc(CN4CCN(c5nc6c(c(N7CCOCC7)n5)SCC6)CC4)ccc3C2=S)C(=O)N1 (centres unmarked) [GT-09330, 3-(5-((4-(4-morpholino-6,7-dihydrothieno[3,2-d]pyrimidin-2-yl)piperazin-1-yl)methyl)-1-thioxoisoindolin-2-yl)piperidine-2,6-dione]
- inhibition at 0.5 µM: 60 to 80%
- inhibition at 2 µM: 80 to 100%

Structure (SMILES): O=C1CCC(N2Cc3cc(CN4CCN(c5ccncc5F)CC4)ccc3C2=S)C(=O)N1 (centres unmarked) [GT-09237, 3-(5-((4-(3-fluoropyridin-4-yl)piperazin-1-yl)methyl)-1-thioxoisoindolin-2-yl)piperidine-2,6-dione]
- inhibition at 0.5 µM: 60 to 80%
- inhibition at 2 µM: 80 to 100%
